Read-outs that look alike come from different tables or passages of the source.

The test system of assay [1] is gastric acid secretion. In words: inhibition of gastric acid secretion in the pylorus ligated rat model. Format: in vivo, Male Sprague-Dawley rats. Conditions: for inhibition in vivo at 10 µmol/kg / inhibition in vivo at 2 µmol/kg: Rattus norvegicus, read-out: Percent Inhibition; for ED50: Table VII, estimated from pylorus ligated rat data; for inhibition in vivo at 2 µmol/kg: 2.0 μmoles/kg; for Inhibition: Table VI. From the text: The gastric acid inhibition activity of direct acting 5-HT1A agonists was established by evaluations using the pylorus ligated rat model. In the pylorus ligated rat model, changes in basal acid secretion may reflect a stimulatory or inhibitory action depending on treatment of compound type tested. The compounds tested were confirmed by various receptor binding tests to have an affinity for the 5-HT1A receptor prior to testing in the pylorus ligated rat model.
The pylorus ligated rat model used is a modification of the procedure developed by Shay (Shay, H., Komarov, A. A. and Greenstein, M.: "Effects of vagotomy in the rat." Arch. Surg. 49:210-226, 1949). Male Sprague-Dawley rats weighing approximately 200 g were starved 24 hours prior to using, with water allowed ad libitum. Under light ether anesthetic the pylorus is ligated, simultaneously the rat is dosed intraperitoneally (i.p.) or subcutaneously (s.c.) and allowed 2 hours for stomach acid accumulation. At the end of 2 hours the rats are sacrificed. Stomach content is measured and titrated to a pH end point of 7.0. Each experiment has its own control group for determining percent of acid change over the 2-hour time period.
Specific compounds within the scope of the above general classes of direct acting 5-HT1A agonists were tested. For evaluation purposes, the compound to be tested is dissolved in distilled water, or in 10% dimethyl sulfoxide, depending upon its solubility. The results of these evaluations are set forth below in Tables I through VI. All compounds were dosed intraperitoneally, unless otherwise indicated.
The ED50 values for certain specific compounds were estimated based on data from the pyrolus ligated rat model evaluations. […] Under "Dose", i.p. means intraperitoneally and s.c. means subcutaneously.

Assay [2] relates to gastric secretion. The conditions noted are these: intravenous infusion in humans, cited from earlier work; for inhibition of gastric secretion (in words): spontaneous and histamine induced.
Where [3] appears, read: ip, 2 h, Table I, 10 μmoles/kg, intraperitoneally, 2 hours.
[4] abbreviates: ip, 2 h, Table II, intraperitoneally, 2 hours.
Setting [5] is: ip, 2 h, Table V, 10 μmoles/kg, intraperitoneally, 2 hours.
Where [6] appears, read: Table I, 10 μmoles/kg, intraperitoneally, 2 hours.
Where [7] appears, read: ip, 2 h, Table II, 10 μmoles/kg, intraperitoneally, 2 hours.
Setting [8] is: ip, 2 h, Table IV, 10 μmoles/kg, intraperitoneally, 2 hours.
Setting [9] is: 10 μmoles/kg, intraperitoneally, 2 hours.

In the case of `CCCN(CCC)C1CCc2cccc(OC)c2C1` (racemic) [Evaluation Example 1, (±) 8-methoxy-2-(dipropylamino)-1,2,3,4-tetrahydronaphthalene], the inhibition in vivo at 10 µmol/kg in assay [1] (setting [3]) stood at 96.4 ± 0.7%. The ED50 in assay [1] (ip, 2 h, i.p., read-out: ED50) was 1.54 µmol/kg.
With `CCCN(CCC)C1Cc2c[nH]c3ccc(C(=O)OC)c(c23)C1` (racemic) [Evaluation Example 13, (±)-4-(Di-n-propylamino)-1,3,4,5-tetrahydrobenz[c,d]indole-6-carboxylic acid, methyl ester], the inhibition in vivo at 2 µmol/kg in assay [1] (setting [4]) came to 86.4 ± 2.5%. Besides, the ED50 in assay [1] (ip, 2 h, i.p., read-out: ED50) was under 0.1 µmol/kg.
For the compound `CN(C)C1Cc2c[nH]c3ccc(C=O)c(c23)C1` (racemic) [Evaluation Example 17, (±)-4-(Dimethylamino)-1,3,4,5-tetrahydrobenz[c,d]indole-6-carboxaldehyde], the inhibition in vivo at 2 µmol/kg in assay [1] (setting [4]) was 79.2 ± 4.6%. Besides, in assay [1] (ip, 2 h, i.p., read-out: ED50), the 50% effective dose (ED50) was 1.26 µmol/kg.
Turning to `O=C1NCN(c2ccccc2)C12CCN(CC1COc3ccccc3O1)CC2` (single isomer, unassigned) [Evaluation Example 28], the inhibition in vivo at 10 µmol/kg in assay [1] (setting [5]) came out at 29.3 ± 10%.
Turning to `O=C1NCN(c2ccccc2)C12CCN(CC1COc3ccccc3O1)CC2` (single isomer, unassigned) [Evaluation Example 29], in assay [1] (Table V, 10 μmoles/kg, intraperitoneally, 2 hours), the “Percent Inhibition” value amounted to 24.6 ± 9.2%.
`NCCc1c[nH]c2ccc(O)cc12` [5-HT, 5-hydroxytryptamine, reference compound]: in assay [1] (20 micromoles/kg, standard), the “inhibition of gastric acid secretion” value stood at 56.1%. Moreover, in assay [1] (ip, 2 h, i.p., read-out: ED50), the ED50 is 11.5 µmol/kg. In assay [2], the “production of mucus (in words)” value is “increasing the production of mucus”; the “inhibition of gastric secretion (in words)” value is “inhibits the volume and acidity of both spontaneous and histamine induced gastric secretion”.
Turning to `N[C@@H](Cc1c[nH]c2ccc(O)cc12)C(=O)O` [5-HTP, 5-hydroxytryptophane], in assay [2], the “production of mucus (in words)” value is on record as “increasing the production of mucus”; the “inhibition of gastric secretion (in words)” value was “inhibits the volume and acidity of both spontaneous and histamine induced gastric secretion”.
`CCCN(CCC)[C@@H]1CCc2cccc(SC)c2C1.Cl` [Evaluation Example 2, (R)-8-Thiomethyl-N,N-dipropyl-2-aminotetralin hydrochloride]: in assay [1] (setting [6]), the “Percent Inhibition” value worked out at 94.9 ± 1.2%. For the same compound, the ED50 in assay [1] (i.p., 120 min) was 1.56 µmol/kg.
As for `CCCN(CCC)[C@H]1CCc2cccc(SC)c2C1.Cl` [Evaluation Example 3, (S)-8-Thiomethyl-N,N-dipropyl-2-aminotetralin hydrochloride], the “Percent Inhibition” value in assay [1] (setting [6]) was found to be 89.8 ± 4.9%. Further, the 50% effective dose (ED50) in assay [1] (i.p., 120 min) is 1.42 µmol/kg.
`CCCN(CCC)C1CCc2cccc(C(N)=O)c2C1` (stereo not shown) [Evaluation Example 4]: the inhibition in vivo at 10 µmol/kg in assay [1] (setting [3]) amounted to 82.5 ± 7.4%.
Same read-out and setting: the value for `CSc1cccc2c1CC(N(C)C)CC2` (stereo not shown) [Evaluation Example 5, 2-Dimethylamino-8-thiomethyl-1,2,3,4-tetrahydronaphthalene] was 80.7 ± 8.4%; that for `CCCN(CCC)C1CCc2cccc(Br)c2C1` (stereo not shown) [Evaluation Example 6, 2-Di-n-propylamino-8-bromo-1,2,3,4-tetrahydronaphthalene] was 39.6 ± 10.9%.
As to `CCCN(CCC)C1CCc2cccc(F)c2C1` (stereo not shown) [Evaluation Example 7], the inhibition in vivo at 10 µmol/kg in assay [1] (setting [3]) was found to be 24.6 ± 7.9%.
For `CCCN(CCC)C1CCc2cccc(O)c2C1` (stereo not shown) [Evaluation Example 8, 8-hydroxy-2-dipropylamino-1,2,3,4-tetrahydronaphthalene, reference compound], in assay [1] (ip, 2 h, Table I, intraperitoneally, 2 hours), the inhibition in vivo at 2 µmol/kg is 80.1 ± 6.3%. In addition, the ED50 in assay [1] (ip, 2 h, i.p., read-out: ED50) is 1.56 µmol/kg; in assay [1] (sc, 2 h, s.c., read-out: ED50), 0.46 µmol/kg.
In the case of `CCCN(CCC)C1Cc2c[nH]c3ccc(C#N)c(c23)C1` (stereo not shown) [Evaluation Example 9], the inhibition in vivo at 10 µmol/kg in assay [1] (setting [7]) was 92.2 ± 3.2%.
For `CN(C)C1Cc2c[nH]c3ccc(C#N)c(c23)C1` (stereo not shown) [Evaluation Example 10], the inhibition in vivo at 10 µmol/kg in assay [1] (setting [7]) worked out at 91.6 ± 3.9%.
Still for that read-out and setting: the value for `CCCN(CCC)C1Cc2c[nH]c3ccc([N+](=O)[O-])c(c23)C1` (stereo not shown) [Evaluation Example 11] was 89.8 ± 1.4%; that for `CCCN(CCC)C1Cc2c[nH]c3ccc(Br)c(c23)C1` (stereo not shown) [Evaluation Example 12] was 87 ± 1.8%.
For the compound `CCCN(CCC)C1Cc2c[nH]c3ccc(OC)c(c23)C1` (stereo not shown) [Evaluation Example 14], the inhibition in vivo at 10 µmol/kg in assay [1] (setting [7]) came to 86.4 ± 4%. Further, the ED50 in assay [1] (ip, 2 h, i.p., read-out: ED50) was under 0.1 µmol/kg.
Turning to `CCCN(CCC)C1Cc2c[nH]c3ccc(C(=O)O)c(c23)C1` (stereo not shown) [Evaluation Example 15], in assay [1] (setting [7]), the inhibition in vivo at 10 µmol/kg was determined as 81.7 ± 5.8%. In addition, the 50% effective dose (ED50) in assay [1] (ip, 2 h, i.p., read-out: ED50) was 1 µmol/kg.
Consider `CCCN(CCC)C1Cc2cn(C(C)C)c3ccc(OC)c(c23)C1` (stereo not shown) [Evaluation Example 16], for which, in assay [1] (setting [7]), the inhibition in vivo at 10 µmol/kg was 80.9 ± 5.5%.
Turning to `CCCN(CCC)C1Cc2c[nH]c3ccc(C(N)=O)c(c23)C1` (stereo not shown) [Evaluation Example 18], the inhibition in vivo at 10 µmol/kg in assay [1] (ip, 2 h) is 65.5 ± 7.1%.
On the same count and under the same terms, the value for `CCCN(CCC)CCc1c[nH]c2ccc(C(N)=O)cc12` [Evaluation Example 19, N,N-dipropyl-5-carboxamidotryptamine] was 92.7 ± 3.3%.
For the compound `OC(CNC1CC2CCC1C2)COc1ccccc1C1CCCC1` (stereo not shown) [Evaluation Example 20], in assay [1] (setting [8]), the inhibition in vivo at 10 µmol/kg is 72.4 ± 7.5%.
Same read-out and setting: with `OC(CNC1CCCCCCC1)COc1ccccc1C1CCCC1` (stereo not shown) [Evaluation Example 21, 1-(2-Cyclopentylphenoxy)-3-(cyclooctylamino)-2-propanol ethanedioate] the figure was 65.1 ± 5.7%; with `OC(CNC1CCCC1)COc1ccccc1C1CCCC1` (stereo not shown) [Evaluation Example 24, 1-(2-Cyclopentylphenoxy)-3-(Cyclopentylamino)-2-propanol ethanedioate], 19.7 ± 14.8%.
As to `Oc1cccc2c1OC(CNCCCC1CCCCC1)CO2` (stereo not shown) [Evaluation Example 25, 2-[(3-Cyclohexylpropyl)aminomethyl]-8-hydroxy-1,4-benzodioxane], the inhibition in vivo at 10 µmol/kg in assay [1] (setting [5]) is 70.4 ± 8.4%.
Still for that read-out and setting: the value for `COc1ccc(CCNCC2COc3ccccc3O2)cc1OC` (stereo not shown) [Evaluation Example 26] was 58.9 ± 6.6%; that for `CCOc1cccc2c1OC(CNCCc1ccccc1)CO2` (stereo not shown) [Evaluation Example 27, 2-[(2-phenylethyl)aminomethyl]-8-ethoxy-1,4-benzodioxane] was 38.3 ± 15.9%; that for `c1ccc(CCNCC2COc3ccccc3O2)cc1` (stereo not shown) [Evaluation Example 30, 2-[(2-phenylethyl)aminomethyl]-1,4-benzodioxane] was 0.3 ± 14.1%.
In assay [1] (setting [9]), `CCCN(CCC)C1CC1c1cccc(O)c1` (stereo not shown) [Evaluation Example 31] displayed an Inhibition of 48.2 ± 17.5.
Consider `CCCN(CCC)C1CC1c1ccccc1O` (stereo not shown) [Evaluation Example 32], for which the Inhibition in assay [1] (setting [9]) was 22.6 ± 11.8.
Turning to `O=C1CC2(CCCC2)CC(=O)N1CCCCN1CCN(c2ncccn2)CC1` [Evaluation Example 33, 8-[4-[4-(2-pyrimidinyl)-1-piperazinyl]butyl]8-azaspiro[4.5]decane-7,9-dione, reference compound], the ED50 in assay [1] (sc, 2 h, s.c., read-out: ED50) was 4.19 µmol/kg.

A word on the ED50: it is the dose that gives a 50% effect, or the effect in half of the subjects.

The values are drawn from US5258379A, “Method of inhibiting gastric acid secretion with n-arylpiperazines” (Eli Lilly and Company, priority 1992, dated 1993).
